Experimental data as given in PMC6270661, “Antileishmanial Lead Structures from Nature: Analysis of Structure-Activity Relationships of a Compound Library Derived from Caffeic Acid Bornyl Ester” (Molecules, 2014).
pIC50: −log10 of the molar value.

Columns and labels:
[1] = test system: L. major promastigotes; assay: AlamarBlue assay, antileishmanial activity against L. major promastigotes; type: cell-based, Leishmania major; settings: for pIC50: mean of two independent experiments; for Selectivity index SI: SI = IC50 for J774.1/IC50 for L. major (promastigotes)
Protocol: (§1) Antileishmanial activities of the synthesized compounds were evaluated in L. major promastigotes as described before and in L. donovani promastigotes according to Hazra et al.. […] The antiprotozoal activities are presented in Table 1, Table 2 and Table 3 as inhibitory concentrations (IC50). […] Materials and methods for the biological assays have been described before by the authors. […] The protocol for the L. donovani quantitative colorimetric assay is outlined by Hazra et al.. The IC50 values are presented as mean values of two independent experiments against the parasite and macrophages.

[2] = test system: L. donovani promastigotes; assay: Quantitative colorimetric assay against L. donovani promastigotes; type: cell-based; settings: mean of two independent experiments
Protocol: as §1

[3] = AlamarBlue cytotoxicity assay on J774.1 macrophages; type: cell-based, murine; settings: mouse, J774.1 macrophage cell line, mean of two independent experiments
[4] = Cytotoxicity against bone marrow derived macrophages (BMDM); type: cell-based, murine; settings: mouse
Excerpt: The amastigote is the intracellular pathogenic form of the parasite in the vertebrate host and therefore the important target. […] With regard to antileishmanial activity cinnamic acid menthyl (20) and […] (19) show good activities combined with low cytotoxicity. […] Materials and methods for the biological assays have been described before by the authors. […] The protocol for the L. donovani quantitative colorimetric assay is outlined by Hazra et al.. The IC50 values are presented as mean values of two independent experiments against the parasite and macrophages.

[5] = test system: L. major amastigotes; assay: L. major amastigote assay; type: cell-based, Leishmania major; settings: for pIC50: Leishmania major; for Selectivity index SI: SI = IC50 for BMDM/IC50 for L. major (amastigotes)
[6] = test system: cysteine-cathepsin (L. major promastigote full-lysate); assay: Cysteine-cathepsin fluorescence activity assay with L. major promastigote full-lysate; type: biochemical, Leishmania major; settings: preliminary experiments, result in words
[7] = test system: J774.1 murine cell line; assay: AlamarBlue cytotoxicity assay on J774.1 macrophages; type: cell-based

SMILES	pIC50 ([1]; Leishmania major)	pIC50 ([2]; Leishmania donovani)	pIC50 [3]	melting point	other results
CC1(C)C2CCC1(C)C(OC(=O)C=Cc1ccc(Br)cc1)C2 (stereo not drawn) [Compound 4, 4-Bromocinnamic Acid (−)-bornyl Ester]	< 4.00	< 4.00	4.26	71 to 74 °C	–
COc1ccc(/C=C/C(=O)Oc2cc(C)ccc2C(C)C)cc1O [Compound 11, Isoferulic Acid Thymyl Ester]	4.22	4.10	4.34	–	–
COc1ccc(C=CC(=O)OC2CC3CCC2(C)C3(C)C)cc1O (stereo not drawn) [Compound 8, Isoferulic Acid Isobornyl Ester]	4.22	4.13	4.35	–	–
COc1ccc(/C=C/C(=O)O[C@@H]2CC3CCC2(C)C3(C)C)cc1 (stereo partly drawn) [Compound 16, 4-Methoxycinnamic Acid (−)-Bornyl Ester]	4.22	< 4.00	4.37	87 to 90 °C	–
C[C@@H]1[C@H](O)[C@@H](C)/C=C/C=C/C=C/C=C/C=C/C=C/C=C/[C@H](O[C@@H]2O[C@H](C)[C@@H](O)[C@H](N)[C@@H]2O)C[C@@H]2O[C@](O)(C[C@@H](O)C[C@@H](O)[C@H](O)CC[C@@H](O)C[C@@H](O)CC(=O)O[C@H]1C)C[C@H](O)[C@H]2C(=O)O [amphotericin B, reference compound]	–	6.40	–	–	–
N=C(N)c1ccc(OCCCCCOc2ccc(C(=N)N)cc2)cc1 [pentamidine, reference compound]	4.09	–	4.41	–	–
Cc1ccc(C(C)C)c(OC(=O)/C=C/c2ccc(O)c(O)c2)c1 [Compound 10, Caffeic Acid Thymyl Ester]	4.24	4.38	5.02	115 to 117 °C	pIC50 [4]: 5.01; pIC50 [5]: 4.27; Selectivity index SI [5]: 0.2
COc1ccc(/C=C/C(=O)OC2CC(C)CCC2C(C)C)cc1O (stereo not drawn) [Compound 13, Isoferulic Acid Menthyl Ester]	4.27	< 4.00	4.35	–	–
CC1(C)C2CCC1(C)C(OC(=O)C=Cc1ccccc1)C2 (stereo not drawn) [Compound 15, Cinnamic Acid (−)-Bornyl Ester]	4.40	–	4.34	–	protease inhibitory activity [6]: showed protease inhibitory activity; Selectivity index SI [1]: 1.1; pIC50 [4]: 4.27; pIC50 [5]: 4.96; Selectivity index SI [5]: 5.0
CC1(C)C2CCC1(C)C(OC(=O)CCc1ccccc1)C2 (stereo not drawn) [Compound 27]	4.30	–	< 4.00	–	Selectivity index SI [1]: >2.0; cytotoxicity J774.1 (in words) ([7]; result in words): did not show cytotoxicity
CCCCCCCCCCCCCCCCOP(=O)([O-])OCC[N+](C)(C)C [miltefosine, reference compound]	4.44	–	4.25	–	pIC50 [4]: 4.18; pIC50 [5]: 4.48; Selectivity index SI [5]: 2.0
CC(=O)Oc1ccc(/C=C/C(=O)O[C@@H]2CC3CCC2(C)C3(C)C)cc1OC(C)=O (stereo partly drawn) [Compound 28, 3-(3,4-Bis(acetyloxy))phenyl Propenoic Acid (−)-Bornyl Ester]	4.51	–	5.68	–	–
CC1(C)C2CCC1(C)C(OC(=O)C=Cc1ccc([N+](=O)[O-])cc1)C2 (stereo not drawn) [Compound 9, 4-Nitrocinnamic Acid Isobornyl Ester]	< 4.00	< 4.00	< 4.00	121 to 123 °C	–
O=C(/C=C/c1ccccc1)OC12CC3CC(CC(C3)C1)C2 [Compound 21, Cinnamic Acid Adamantyl Ester]	4.22	< 4.00	4.33	66 °C	–
CC(C)=CCCC(C)(OC(=O)C=Cc1ccccc1)C1CC=C(C)CC1 (stereo not drawn) [Compound 24, Cinnamic Acid Bisabolyl Ester]	< 4.00	< 4.00	< 4.00	–	–
Cc1ccc(C(C)C)c(OC(=O)/C=C/c2ccccc2)c1 [Compound 19, Cinnamic Acid Thymyl Ester]	4.26	< 4.00	4.35	–	pIC50 [4]: < 3.83; pIC50 [5]: 4.31; Selectivity index SI [5]: >3.0

SMILES	pIC50 ([1]; Leishmania major)	pIC50 ([2]; Leishmania donovani)	pIC50 [3]	melting point	other results
CC1(C)C2CCC1(C)[C@H](OC(=O)/C=C/c1ccc(O)c(O)c1)C2 (stereo partly drawn) [Compound 1, Caffeic Acid (−)-bornyl Ester]	4.31	4.56	5.08	–	protease inhibitory activity [6]: showed protease inhibitory activity; pIC50 [4]: 5.28; pIC50 [5]: 4.32; Selectivity index SI [5]: 0.1
CC(C)=CCC/C(C)=C/COC(=O)/C=C/c1ccccc1 [Compound 26, Cinnamic Acid Geranyl Ester]	< 4.00	4.38	< 4.00	–	–
O=C(/C=C/c1ccccc1)Oc1ccc2ccccc2c1 [Compound 22]	4.17	4.54	4.35	109 to 110 °C	–
O=C(/C=C/c1ccccc1)OC1CCCCC1 [Compound 23, Cinnamic Acid Cyclohexyl Ester]	< 4.00	4.63	< 4.00	–	–
CC1(C)C2CCC1(C)[C@@H](OC(=O)/C=C/c1ccccc1)C2 (stereo partly drawn) [Compound 18, Cinnamic Acid Isobornyl Ester]	4.19	4.29	4.34	–	–
CC1(C)C2CCC1(C)[C@H](OC(=O)/C=C/c1cccc(Cl)c1Cl)C2 (stereo partly drawn) [Compound 14, 2,3-Dichlorocinnamic acid (−)-bornyl ester]	4.18	< 4.00	4.23	86 to 87 °C	–
CC1(C)C2CCC1(C)C(OC(=O)C=Cc1ccc(OCc3ccccc3)cc1)C2 (stereo not drawn) [Compound 6]	< 4.00	< 4.00	< 4.00	93 to 95 °C	–
CC1(C)C2CCC1(C)C(OC(=O)C=Cc1ccc(O)c(O)c1)C2 (stereo not drawn) [Compound 7, Caffeic Acid Isobornyl Ester]	4.34	4.46	5.06	–	pIC50 [4]: 4.96; pIC50 [5]: 4.33; Selectivity index SI [5]: 0.2
CN(C)c1ccc(C=CC(=O)OC2CC3CCC2(C)C3(C)C)cc1 (stereo not drawn) [Compound 5, 4-N-Dimethylaminocinnamic Acid (−)-bornyl Ester]	< 4.00	< 4.00	< 4.00	114 to 116 °C	–
CC1(C)C2CCC1(C)C(OC(=O)C=Cc1ccc(Cl)cc1)C2 (stereo not drawn) [Compound 3, 4-Chlorocinnamic Acid (−)-bornyl Ester]	4.15	< 4.00	4.31	80 to 83 °C	–
CC1CCC(C(C)C)C(OC(=O)/C=C/c2ccc(O)c(O)c2)C1 (stereo not drawn) [Compound 12, Caffeic Acid Menthyl Ester]	4.23	4.10	5.71	–	–
COc1ccc(/C=C/C(=O)OC2CC3CCC2(C)C3(C)C)cc1O (stereo not drawn) [Compound 2, Isoferulic Acid (−)-bornyl Ester]	–	–	–	–	pIC50 [1]: 4.19; pIC50 [2]: 4.38; pIC50 [4]: 4.31; pIC50 ([7]; mean of two independent experiments): 4.31; pIC50 [5]: 4.41; Selectivity index SI [5]: 1.2
C=CCc1ccc(OC(=O)/C=C/c2ccccc2)c(OC)c1 [Compound 25, Cinnamic Acid Eugenyl Ester]	< 4.00	4.10	4.49	–	–
CC1(C)C2CCC1(C)[C@H](OC(=O)/C=C/c1ccc(Cl)cc1Cl)C2 (stereo partly drawn) [Compound 17, 2,4-Dichlorocinnamic Acid (−)-bornyl Ester]	4.09	< 4.00	4.22	90 to 92 °C	–
CC1CCC(C(C)C)C(OC(=O)/C=C/c2ccccc2)C1 (stereo not drawn) [Compound 20, Cinnamic Acid Menthyl Ester]	4.27	4.10	4.35	–	pIC50 [4]: < 3.90; pIC50 [5]: 4.71; Selectivity index SI [5]: >6.4
